Key:
[1] = system: barnyard grass; experiment: Test Example 4: herbicidal effect by soil treatment (Table 19, symbol H); assay type: in vivo, barnyard grass (Echinochloa crus-galli); conditions: amount of applied herbicide 320 g/ha
Procedure, shortened: (§1)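 Herbicidal effect was rated 3 weeks after treatment, using the scoring criteria of an earlier test. The compound, formulated as an emulsion and diluted in water to a set herbicide amount, had been sprayed uniformly on soil over freshly sown seeds. Growth took place in a greenhouse at 25° C. to 30° C.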

[2] = system: windgrass; experiment: Test Example 5: herbicidal effect by foliage application, plastic box (Table 20, symbol L); assay type: in vivo, windgrass (Apera spica-venti); conditions: foliage application, evaluated three weeks after application
Procedure, shortened: (§2)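 Foliar spray test: emulsion formulation diluted in water to a set application rate, sprayed onto 14-day-old plants raised in diluvial soil at 25° C to 30° C under glass. Both herbicidal effect and crop effect rated visually three weeks later.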

[3] = system: barnyard grass; experiment: Test Example 3: herbicidal effect by foliage application, Wagner pot (Table 18, symbol H); assay type: in vivo, barnyard grass (Echinochloa crus-galli); conditions: amount of applied herbicide 320 g/ha
Procedure, shortened: (§3)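 Plants were sown in alluvial soil held under 0.1–0.5 cm standing water and grown 14 days in a greenhouse at 25–30 °C. An emulsifiable formulation, water-diluted to the set dose, was then sprayed onto the foliage, and effects were scored three weeks later using previously defined criteria.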

[4] = system: velvetleaf; experiment: Test Example 5: herbicidal effect by foliage application, plastic box (Table 20, symbol M); assay type: in vivo, velvetleaf (Abutilon theophrasti); conditions: foliage application, evaluated three weeks after application
Procedure, shortened: as §2

[5] = system: velvetleaf; experiment: Test Example 4: herbicidal effect by soil treatment (Table 19, symbol M); assay type: in vivo, velvetleaf (Abutilon theophrasti); conditions: amount of applied herbicide 320 g/ha
Procedure, shortened: as §1

[6] = system: rice flat sedge; experiment: Test Example 3: herbicidal effect by foliage application, Wagner pot (Table 18, symbol E); assay type: in vivo, rice flat sedge (Cyperus iria); conditions: amount of applied herbicide 320 g/ha
Procedure, shortened: as §3

[7] = system: southern crabgrass; experiment: Test Example 5: herbicidal effect by foliage application, plastic box (Table 20, symbol F); assay type: in vivo, southern crabgrass (Digitaria ciliaris); conditions: foliage application, evaluated three weeks after application
Procedure, shortened: as §2

[8] = system: green foxtail; experiment: Test Example 5: herbicidal effect by foliage application, plastic box (Table 20, symbol G); assay type: in vivo, green foxtail (Setaria viridis); conditions: foliage application, evaluated three weeks after application
Procedure, shortened: as §2

[9] = system: redroot pigweed; experiment: Test Example 4: herbicidal effect by soil treatment (Table 19, symbol N); assay type: in vivo, redroot pigweed (Amaranthus retroflexus); conditions: amount of applied herbicide 320 g/ha
Procedure, shortened: as §1

[10] = system: Italian ryegrass; experiment: Test Example 4: herbicidal effect by soil treatment (Table 19, symbol K); assay type: in vivo, Italian ryegrass (Lolium multiflorum); conditions: amount of applied herbicide 320 g/ha
Procedure, shortened: as §1

[11] = system: green foxtail; experiment: Test Example 4: herbicidal effect by soil treatment (Table 19, symbol G); assay type: in vivo, green foxtail (Setaria viridis); conditions: amount of applied herbicide 320 g/ha
Procedure, shortened: as §1

[12] = system: wild oat; experiment: Test Example 5: herbicidal effect by foliage application, plastic box (Table 20, symbol I); assay type: in vivo, wild oat (Avena fatua); conditions: foliage application, evaluated three weeks after application
Procedure, shortened: as §2

[13] = system: windgrass; experiment: Test Example 4: herbicidal effect by soil treatment (Table 19, symbol L); assay type: in vivo, windgrass (Apera spica-venti); conditions: amount of applied herbicide 320 g/ha
Procedure, shortened: as §1

[14] = system: blackgrass; experiment: Test Example 4: herbicidal effect by soil treatment (Table 19, symbol J); assay type: in vivo, blackgrass (Alopecurus myosuroides); conditions: amount of applied herbicide 320 g/ha
Procedure, shortened: as §1

[15] = system: lambsquarters; experiment: Test Example 4: herbicidal effect by soil treatment (Table 19, symbol O); assay type: in vivo, lambsquarters (Chenopodium album); conditions: amount of applied herbicide 320 g/ha
Procedure, shortened: as §1

[16] = system: Italian ryegrass; experiment: Test Example 5: herbicidal effect by foliage application, plastic box (Table 20, symbol K); assay type: in vivo, Italian ryegrass (Lolium multiflorum); conditions: foliage application, evaluated three weeks after application
Procedure, shortened: as §2

[17] = system: blackgrass; experiment: Test Example 5: herbicidal effect by foliage application, plastic box (Table 20, symbol J); assay type: in vivo, blackgrass (Alopecurus myosuroides); conditions: foliage application, evaluated three weeks after application
Procedure, shortened: as §2

[18] = system: wild oat; experiment: Test Example 4: herbicidal effect by soil treatment (Table 19, symbol I); assay type: in vivo, wild oat (Avena fatua); conditions: amount of applied herbicide 320 g/ha
Procedure, shortened: as §1

[19] = system: chickweed; experiment: Test Example 4: herbicidal effect by soil treatment (Table 19, symbol P); assay type: in vivo, common chickweed (Stellaria media); conditions: amount of applied herbicide 320 g/ha
Procedure, shortened: as §1

[20] = system: persian speedwell; experiment: Test Example 4: herbicidal effect by soil treatment (Table 19, symbol R); assay type: in vivo, Persian speedwell (Veronica persica); conditions: amount of applied herbicide 320 g/ha
Procedure, shortened: as §1

[21] = system: Chinese sprangletop; experiment: Test Example 3: herbicidal effect by foliage application, Wagner pot (Table 18, symbol D); assay type: in vivo, chinese sprangletop (Leptochloa chinensis); conditions: amount of applied herbicide 320 g/ha
Procedure, shortened: as §3

[22] = system: lambsquarters; experiment: Test Example 5: herbicidal effect by foliage application, plastic box (Table 20, symbol O); assay type: in vivo, lambsquarters (Chenopodium album); conditions: foliage application, evaluated three weeks after application
Procedure, shortened: as §2

[23] = system: southern crabgrass; experiment: Test Example 4: herbicidal effect by soil treatment (Table 19, symbol F); assay type: in vivo, southern crabgrass (Digitaria ciliaris); conditions: amount of applied herbicide 320 g/ha
Procedure, shortened: as §1

[24] = system: chickweed; experiment: Test Example 5: herbicidal effect by foliage application, plastic box (Table 20, symbol P); assay type: in vivo, common chickweed (Stellaria media); conditions: foliage application, evaluated three weeks after application
Procedure, shortened: as §2

[25] = system: barnyard grass; experiment: Test Example 5: herbicidal effect by foliage application, plastic box (Table 20, symbol H); assay type: in vivo, barnyard grass (Echinochloa crus-galli); conditions: foliage application, evaluated three weeks after application
Procedure, shortened: as §2

[26] = system: persian speedwell; experiment: Test Example 5: herbicidal effect by foliage application, plastic box (Table 20, symbol R); assay type: in vivo, Persian speedwell (Veronica persica); conditions: foliage application, evaluated three weeks after application
Procedure, shortened: as §2

[27] = system: redroot pigweed; experiment: Test Example 5: herbicidal effect by foliage application, plastic box (Table 20, symbol N); assay type: in vivo, redroot pigweed (Amaranthus retroflexus); conditions: foliage application, evaluated three weeks after application
Procedure, shortened: as §2

SMILES | herbicidal effect on H: barnyard grass [1] | herbicidal effect on H: barnyard grass [3] | herbicidal effect on M: velvetleaf [5] | herbicidal effect on E: rice flat sedge [6] | herbicidal effect on N: redroot pigweed [9] | herbicidal effect on K: Italian ryegrass [10] | herbicidal effect on G: green foxtail [11] | herbicidal effect on L: windgrass [13] | herbicidal effect on J: blackgrass [14] | herbicidal effect on O: lambsquarters [15] | herbicidal effect on I: wild oat [18] | herbicidal effect on P: chickweed [19] | herbicidal effect on R: persian speedwell [20] | herbicidal effect on D: Chinese sprangletop [21] | herbicidal effect on F: southern crabgrass [23] | further results
CSc1cccc(-c2sc3ccc(F)cc3c2-c2c(O)c(C)nn(C)c2=O)c1 [2-240] | 2 (Herbicidal rate of 20% or more and less than 40%) | 4 (Herbicidal rate of 70% or more and less than 90%) | 1 (Herbicidal rate of 5% or more and less than 20%) | 4 (Herbicidal rate of 70% or more and less than 90%) | 4 (Herbicidal rate of 70% or more and less than 90%) | 0 (Herbicidal rate of 5% or less (almost no effect)) | 5 (Herbicidal rate of 90% or more (almost completely withered)) | 0 (Herbicidal rate of 5% or less (almost no effect)) | 0 (Herbicidal rate of 5% or less (almost no effect)) | 3 (Herbicidal rate of 40% or more and less than 70%) | 1 (Herbicidal rate of 5% or more and less than 20%) | 1 (Herbicidal rate of 5% or more and less than 20%) | 5 (Herbicidal rate of 90% or more (almost completely withered)) | 3 (Herbicidal rate of 40% or more and less than 70%) | 4 (Herbicidal rate of 70% or more and less than 90%) | herbicidal effect on L: windgrass (criteria 0-5) ([2]; 320 g/ha): 4 (Herbicidal rate of 70% or more and less than 90%); herbicidal effect on M: velvetleaf (criteria 0-5) ([4]; 320 g/ha): 4 (Herbicidal rate of 70% or more and less than 90%); herbicidal effect on F: southern crabgrass (criteria 0-5) ([7]; 320 g/ha): 5 (Herbicidal rate of 90% or more (almost completely withered)); herbicidal effect on G: green foxtail (criteria 0-5) ([8]; 320 g/ha): 5 (Herbicidal rate of 90% or more (almost completely withered)); herbicidal effect on I: wild oat (criteria 0-5) ([12]; 320 g/ha): 5 (Herbicidal rate of 90% or more (almost completely withered)); herbicidal effect on K: Italian ryegrass (criteria 0-5) ([16]; 320 g/ha): 3 (Herbicidal rate of 40% or more and less than 70%); herbicidal effect on J: blackgrass (criteria 0-5) ([17]; 320 g/ha): 3 (Herbicidal rate of 40% or more and less than 70%); herbicidal effect on O: lambsquarters (criteria 0-5) ([22]; 320 g/ha): 5 (Herbicidal rate of 90% or more (almost completely withered)); herbicidal effect on P: chickweed (criteria 0-5) ([24]; 320 g/ha): 5 (Herbicidal rate of 90% or more (almost completely withered)); herbicidal effect on H: barnyard grass (criteria 0-5) ([25]; 320 g/ha): 3 (Herbicidal rate of 40% or more and less than 70%); herbicidal effect on R: persian speedwell (criteria 0-5) ([26]; 320 g/ha): 5 (Herbicidal rate of 90% or more (almost completely withered)); herbicidal effect on N: redroot pigweed (criteria 0-5) ([27]; 320 g/ha): 5 (Herbicidal rate of 90% or more (almost completely withered))
Cc1nn(C)c(=O)c(-c2c(-c3ccc(OC(F)F)cc3)sc3ccc(F)cc23)c1OC(=O)N(C)C [2-291] | 0 (Herbicidal rate of 5% or less (almost no effect)) | 4 (Herbicidal rate of 70% or more and less than 90%) | 0 (Herbicidal rate of 5% or less (almost no effect)) | 2 (Herbicidal rate of 20% or more and less than 40%) | 3 (Herbicidal rate of 40% or more and less than 70%) | 0 (Herbicidal rate of 5% or less (almost no effect)) | 0 (Herbicidal rate of 5% or less (almost no effect)) | 0 (Herbicidal rate of 5% or less (almost no effect)) | 0 (Herbicidal rate of 5% or less (almost no effect)) | 3 (Herbicidal rate of 40% or more and less than 70%) | 0 (Herbicidal rate of 5% or less (almost no effect)) | 4 (Herbicidal rate of 70% or more and less than 90%) | 3 (Herbicidal rate of 40% or more and less than 70%) | 3 (Herbicidal rate of 40% or more and less than 70%) | 0 (Herbicidal rate of 5% or less (almost no effect)) | L: windgrass, herbicidal effect (criteria 0-5) ([2]; AAH 320 g/ha): 0 (Herbicidal rate of 5% or less (almost no effect)); M: velvetleaf, herbicidal effect (criteria 0-5) ([4]; AAH 320 g/ha): 2 (Herbicidal rate of 20% or more and less than 40%); F: southern crabgrass, herbicidal effect (criteria 0-5) ([7]; AAH 320 g/ha): 0 (Herbicidal rate of 5% or less (almost no effect)); G: green foxtail, herbicidal effect (criteria 0-5) ([8]; AAH 320 g/ha): 4 (Herbicidal rate of 70% or more and less than 90%); I: wild oat, herbicidal effect (criteria 0-5) ([12]; AAH 320 g/ha): 0 (Herbicidal rate of 5% or less (almost no effect)); K: Italian ryegrass, herbicidal effect (criteria 0-5) ([16]; AAH 320 g/ha): 3 (Herbicidal rate of 40% or more and less than 70%); J: blackgrass, herbicidal effect (criteria 0-5) ([17]; AAH 320 g/ha): 3 (Herbicidal rate of 40% or more and less than 70%); O: lambsquarters, herbicidal effect (criteria 0-5) ([22]; AAH 320 g/ha): 5 (Herbicidal rate of 90% or more (almost completely withered)); P: chickweed, herbicidal effect (criteria 0-5) ([24]; AAH 320 g/ha): 5 (Herbicidal rate of 90% or more (almost completely withered)); H: barnyard grass, herbicidal effect (criteria 0-5) ([25]; AAH 320 g/ha): 0 (Herbicidal rate of 5% or less (almost no effect)); R: persian speedwell, herbicidal effect (criteria 0-5) ([26]; AAH 320 g/ha): 5 (Herbicidal rate of 90% or more (almost completely withered)); N: redroot pigweed, herbicidal effect (criteria 0-5) ([27]; AAH 320 g/ha): 5 (Herbicidal rate of 90% or more (almost completely withered))

Reference: patent publication US20230085307A1, “PYRIDAZINONE COMPOUND AND HERBICIDE” (NISSAN CHEMICAL CORPORATION, priority 2019, published 2023)
